Consider 28 compounds from patent US20080318933A1, “5-Sulfonyl-1-Piperidinyl Substituted Indole Derivatives as 5-Ht6 Receptor Antagonists for the Treatment of Cns Disorders” (Glaxo Group Limited, priority 2004, published 2008).

Each structure is given as a SMILES string. Counter-ions that a name gives are not always drawn. Bounds are passed on as bounds.

The target of the test is T1, human cloned 5-HT6 receptors (Homo sapiens, UniProt P50406).
T1 construct: expressed in transfected cells; host or cells: HeLa cells expressing cloned human 5-HT6 receptor (membranes)
T1 sequence (P50406 whole entry): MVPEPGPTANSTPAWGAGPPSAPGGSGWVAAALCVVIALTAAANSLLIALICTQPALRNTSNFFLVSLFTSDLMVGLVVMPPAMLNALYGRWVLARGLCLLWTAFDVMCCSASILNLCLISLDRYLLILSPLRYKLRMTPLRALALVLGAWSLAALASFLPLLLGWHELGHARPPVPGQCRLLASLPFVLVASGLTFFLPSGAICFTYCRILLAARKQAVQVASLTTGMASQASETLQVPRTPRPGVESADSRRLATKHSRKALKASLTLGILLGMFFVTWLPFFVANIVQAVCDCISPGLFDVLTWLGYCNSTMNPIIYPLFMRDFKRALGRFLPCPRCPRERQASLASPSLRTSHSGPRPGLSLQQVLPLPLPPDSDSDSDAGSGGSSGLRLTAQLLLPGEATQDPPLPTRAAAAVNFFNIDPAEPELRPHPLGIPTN
Kind of test: Cyclase assay (cAMP production in membranes of HeLa 5HT6 cells, 5-HT stimulated). The test is classed as biochemical. The following applies: 5-HT at 4xEC50, functional Ki by Cheng-Prusoff, read-out: pKi values (converted). How it is done: 0.5 μl of test compound in 100% dimethylsulfoxide (DMSO) was added to a white, solid 384 well assay plate (for dose response measurements the top of the concentration range is 7.5 μM final). 10 μl of washed membranes of HeLa 5HT6 cells (for preparation see WO 98/27081) in basic buffer (50 mM HEPES pH 7.4 (KOH), 10 mM MgCl2, 100 mM NaCl, 10 μM 3-isobutyl-1-methylxanthine (IBMX) (Sigma-Aldrich)) was added to all wells followed by 10 μl 2×ATP buffer (i.e. basic buffer containing 3 mM ATP) with 5-HT (at a concentration equivalent to a dose response of 4×EC50). The resultant mixture was then incubated at room temperature for 30-45 minutes to allow cAMP production. cAMP production was then measured using the DiscoveRX™ HitHunter™ chemiluminescence cAMP assay kit (DiscoveRx Corporation, 42501 Albrae Street, Fremont, Calif. 94538; Product Code: 90-0004L) or any other suitable cAMP measurement assay.
IC50 values were estimated from arbitrary designated unit (ADU) measurements from a Perkin Elmer Viewlux instrument using a four parameter logistic curve fit within EXCEL (Bowen, W. P. and Jerman, J. C. (1995), Nonlinear regression using spreadsheets. Trends in Pharmacol. Sci., 16, 413-417). Functional Ki values were calculated using the method of Cheng, Y. C. and Prussof, W. H. (Biochemical Pharmacol (1973) 22 3099-3108). plC50 and fpKi are the negative log 10 of the molar IC50 and functional Ki respectively.
`O=S(=O)(c1ccc(F)cc1)c1ccc2c(c1)CCN2C1CCNCC1` [Example E15a, 5-[(4-Fluorophenyl)sulfonyl]-1-(4-piperidinyl)-2,3-dihydro-1H-indole hydrochloride]: the Ki was at most 10 nM.

As for `O=S(=O)(c1ccc2c(ccn2C2CCNCC2)c1)c1ccccc1F` [Example E14, 5-[(2-fluorophenyl)sulfonyl]-1-(4-piperidinyl)-1H-indole hydrochloride], the Ki was at most 10 nM. Turning to `O=S(=O)(c1ccccc1)c1ccc2c(c1)CCN2C1CCN2CCCC2C1` (stereo not shown) [Example E6, 1-(Octahydro-7-indolizinyl)-5-(phenylsulfonyl)-2,3-dihydro-1H-indole hydrochloride], the Ki was at most 10 nM.

With `Cc1ccc(S(=O)(=O)c2ccc3c(c2)CCN3C2CCNCC2)cc1` [Example E11, 5-[(4-methylphenyl)sulfonyl]-1-(4-piperidinyl)-2,3-dihydro-1H-indole], the Ki was at most 10 nM. For the compound `CCCN1CCC(N2CCc3cc(S(=O)(=O)c4cccc(C)c4)ccc32)CC1` [Example E64, 5-[(3-Methylphenyl)sulfonyl]-1-(1-propyl-4-piperidinyl)-2,3-dihydro-1H-indole hydrochloride], the Ki is at most 10 nM. Under `CCN1CCC(N2CCc3cc(S(=O)(=O)c4cc(F)ccc4F)ccc32)CC1` [Example E42, 5-[(2,5-Difluorophenyl)sulfonyl]-1-(1-ethyl-4-piperidinyl)-2,3-dihydro-1H-indole hydrochloride] stands at most 10 nM; under `Cc1cn(C2CCNCC2)c2ccc(S(=O)(=O)c3ccccc3)cc12` [Example E65, 3-Methyl-5-(phenylsulfonyl)-1-(4-piperidinyl)-1H-indole hydrochloride], at most 10 nM.

For `CCCN1CCC(N2CCc3cc(S(=O)(=O)c4cc(F)cc(F)c4)ccc32)CC1` [Example E34, 5-[(3,5-Difluorophenyl)sulfonyl]-1-(1-propyl-4-piperidinyl)-2,3-dihydro-1H-indole hydrochloride], the Ki was at most 10 nM. The value for `CN1CCC(N2CCc3cc(S(=O)(=O)c4ccc(F)cc4)ccc32)CC1` [Example E41, 5-[(4-Fluorophenyl)sulfonyl]-1-(1-methyl-4-piperidinyl)-2,3-dihydro-1H-indole hydrochloride] was at most 10 nM; that for `O=S(=O)(c1ccccc1)c1ccc2c(c1)CCN2C1CCNCC1` [Example E3a, 5-(Phenylsulfonyl)-1-(4-piperidinyl)-2,3-dihydro-1H-indole hydrochloride] was at most 10 nM; that for `CC(C)N1CCC(N2CCc3cc(S(=O)(=O)c4cc(F)cc(F)c4)ccc32)CC1` [Example E52, 5-[(3,5-Difluorophenyl)sulfonyl]-1-[1-(1-methylethyl)-4-piperidinyl)-2,3-dihydro-1H-indole hydrochloride] was at most 10 nM. The value for `Cc1nc(C)c(S(=O)(=O)c2ccc3c(c2)CCN3C2CCNCC2)s1` [Example E28, 5-[(2,4-Dimethyl-1,3-thiazol-5-yl)sulfonyl]-1-(4-piperidinyl)-2,3-dihydro-1H-indole hydrochloride] was at most 10 nM.

In the case of `CCN1CCC(n2ccc3cc(S(=O)(=O)c4cc(F)cc(F)c4)ccc32)CC1` [Example E35, 1-(1-Ethyl-4-piperidinyl)-5-[(3,5-difluorophenyl)sulfonyl]-1H-indole hydrochloride], the Ki was at most 10 nM. The value for `CCN1CCC(N2CCc3cc(S(=O)(=O)c4cccc(C)c4)ccc32)CC1` [Example E63, 5-[(3-Methylphenyl)sulfonyl]-1-(1-ethyl-4-piperidinyl)-2,3-dihydro-1H-indole hydrochloride] was at most 10 nM; that for `O=S(=O)(c1ccccc1)c1cc(F)c2c(c1)CCN2C1CCNCC1` [Example E18a, 7-Fluoro-5-(phenylsulfonyl)-1-(4-piperidinyl)-2,3-dihydro-1H-indole hydrochloride] was at most 10 nM. Under `CCN1CCC(N2CCc3cc(S(=O)(=O)c4cccc(Cl)c4)ccc32)CC1` [Example E54, 5-[((3-Chlorophenyl)sulfonyl]-1-(1-ethyl-4-piperidinyl)-2,3-dihydro-1H-indole hydrochloride] stands at most 10 nM; under `O=S(=O)(c1ccc2c(c1)CCN2C1CCNCC1)c1ccccc1F` [Example E9, 5-[(2-Fluorophenyl)sulfonyl]-1-(4-piperidinyl)-2,3-dihydro-1H-indole hydrochloride], at most 10 nM; under `CC(C)N1CCC(N2CCc3cc(S(=O)(=O)c4ccccc4)ccc32)CC1` [Example E36, 1-[1-(1-Methylethyl)-4-piperidinyl]-5-(phenylsulfonyl)-2,3-dihydro-1H-indole], at most 10 nM. The value for `O=S(=O)(c1ccccc1)c1ccc2c(c1)CCN2C1CCNC1` (stereo not shown) [Example E17a, 5-(Phenylsulfonyl)-1-(3-pyrrolidinyl)-2,3-dihydro-1H-indole] was at most 10 nM. As to `CCCN1CCC(N2CCc3cc(S(=O)(=O)c4cccc(F)c4)ccc32)CC1` [Example E56, 5-[(3-Fluorophenyl)sulfonyl]-1-(1-propyl-4-piperidinyl)-2,3-dihydro-1H-indole hydrochloride], the Ki was at most 10 nM. The value for `O=S(=O)(c1cc(F)cc(F)c1)c1ccc2c(c1)CCN2C1CCNCC1` [Example E10, 5-[(3,5-Difluorophenyl)sulfonyl]-1-(4-piperidinyl)-2,3-dihydro-1H-indole hydrochloride] was at most 10 nM; that for `CC(C)N1CCC(N2CCc3cc(S(=O)(=O)c4cccc(F)c4)ccc32)CC1` [Example E57, 5-[(3-Fluorophenyl)sulfonyl]-1-(1-(1-methylethyl)-4-piperidinyl)-2,3-dihydro-1H-indole hydrochloride] was at most 10 nM. The value for `CCN1CCC(N2CCc3cc(S(=O)(=O)c4cc(F)cc(F)c4)ccc32)CC1` [Example E51, 5-[(3,5-Difluorophenyl)sulfonyl]-1-(1-ethyl-4-piperidinyl)-2,3-dihydro-1H-indole hydrochloride] was at most 10 nM. Under `CCN1CCC(n2ccc3cc(S(=O)(=O)c4cccc(F)c4)ccc32)CC1` [Example E33, 1-(1-Ethyl-4-piperidinyl)-5-[(3-fluorophenyl)sulfonyl]-1H-indole hydrochloride] stands at most 10 nM. Take `Cc1cccc(S(=O)(=O)c2ccc3c(c2)CCN3C2CCNCC2)c1` [Example E26, 5-[(3-Methylphenyl)sulfonyl]-1-(4-piperidinyl)-2,3-dihydro-1H-indole hydrochloride]: the Ki was at most 10 nM. Under `CC(C)N1CCC(N2CCc3cc(S(=O)(=O)c4cc(F)ccc4F)ccc32)CC1` [Example E43, 5-[(2,5-Difluorophenyl)sulfonyl]-1-[1-(1-methylethyl)-4-piperidinyl]-2,3-dihydro-1H-indole hydrochloride] stands at most 10 nM; under `CCN1CCC(N2CCc3cc(S(=O)(=O)c4ccccc4)ccc32)CC1` [Example E39, 1-(1-Ethyl-4-piperidinyl)-5-(phenylsulfonyl)-2,3-dihydro-1H-indole hydrochloride], at most 10 nM; under `CC(C)(C)CN1CCC(N2CCc3cc(S(=O)(=O)c4ccccc4)ccc32)CC1` [Example E38, 1-[1-(2,2-dimethylpropyl)-4-piperidinyl]-5-(phenylsulfonyl)-2,3-dihydro 1H-indole], below 316 nM.
